Measured values reported in patent US20210122730A1, “GLUCOCORTICOID RECEPTOR MODULATORS” (ORIC Pharmaceuticals, Inc., priority 2017, published 2021).

These compounds were tested against T1, GR (Homo sapiens, UniProt P04150) (assay: In Vitro GR Luciferase Reporter Assay (antagonist mode, CHO-K1-GR-MMTV-Luc reporter cells)). Details: antagonist mode, 10 nM Dexamethasone.
T1 construct: expressed in transfected cells; host or cells: CHO-K1
T1 sequence (P04150 1-777): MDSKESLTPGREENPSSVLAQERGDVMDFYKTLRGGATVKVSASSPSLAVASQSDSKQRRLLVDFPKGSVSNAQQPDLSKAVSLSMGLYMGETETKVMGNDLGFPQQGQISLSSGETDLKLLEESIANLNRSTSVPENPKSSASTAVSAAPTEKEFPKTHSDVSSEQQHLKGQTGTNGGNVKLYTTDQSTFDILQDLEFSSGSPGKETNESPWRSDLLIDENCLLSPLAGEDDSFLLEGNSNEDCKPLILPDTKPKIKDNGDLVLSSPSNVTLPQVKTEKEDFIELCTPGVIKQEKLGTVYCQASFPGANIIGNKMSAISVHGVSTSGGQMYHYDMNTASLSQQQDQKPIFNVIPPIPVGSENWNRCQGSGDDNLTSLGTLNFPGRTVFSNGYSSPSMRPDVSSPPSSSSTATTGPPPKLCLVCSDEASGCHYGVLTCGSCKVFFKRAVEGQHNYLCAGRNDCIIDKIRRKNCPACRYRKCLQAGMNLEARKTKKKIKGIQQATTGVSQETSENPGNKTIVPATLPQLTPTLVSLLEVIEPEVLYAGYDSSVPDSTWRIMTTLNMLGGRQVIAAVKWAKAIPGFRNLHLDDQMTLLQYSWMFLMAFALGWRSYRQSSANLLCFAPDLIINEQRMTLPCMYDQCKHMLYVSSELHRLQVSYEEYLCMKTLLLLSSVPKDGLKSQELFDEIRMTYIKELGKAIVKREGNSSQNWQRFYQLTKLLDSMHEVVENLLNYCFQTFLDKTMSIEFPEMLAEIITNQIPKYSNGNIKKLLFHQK
Format: cell-based
In short: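 Antagonist mode: compounds (8 serial 1:5 dilutions) added to GR-MMTV-luciferase CHO-K1 reporter cells co-exposed to 10 nM dexamethasone final, in phenol red-free DMEM plus 10% CSS. After roughly 18-24 h at 37° C, OneGlo luminescence read and IC50 calculated.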

IC50, ≤ 100 nM:
Cn1ccc(S(=O)(=O)N(CC2CC2)[C@H]2CCC3=Cc4c(cnn4-c4ccc(F)cc4)C[C@]3(C(=O)c3nccs3)C2)n1 [Example 172, N-(cyclopropylmethyl)-N-((4aS,6S)-1-(4-fluorophenyl)-4a-(thiazole-2-carbonyl)-4,4a,5,6,7,8-hexahydro-1H-benzo[f]indazol-6-yl)-1-methyl-1H-pyrazole-3-sulfonamide]
Cn1ncc(S(=O)(=O)N(C2CC2)[C@H]2CCC3=Cc4c(cnn4-c4ccc(F)cc4)C[C@]3(C(=O)c3nccs3)C2)n1 [Example 173, N-cyclopropyl-N-((4aS,6S)-1-(4-fluorophenyl)-4a-(thiazole-2-carbonyl)-4,4a,5,6,7,8-hexahydro-1H-benzo[f]indazol-6-yl)-2-methyl-2H-1,2,3-triazole-4-sulfonamide]
Cn1ncc(S(=O)(=O)N(C2CC2)[C@H]2CCC3=Cc4c(cnn4-c4ccc(F)cc4)C[C@]3(C(=O)c3ncc(C4CC4)s3)C2)n1 [Example 174, N-cyclopropyl-N-((4aS,6S)-4a-(5-cyclopropylthiazole-2-carbonyl)-1-(4-fluorophenyl)-4,4a,5,6,7,8-hexahydro-1H-benzo[f]indazol-6-yl)-2-methyl-2H-1,2,3-triazole-4-sulfonamide]
CCN([C@H]1CCC2=Cc3c(cnn3-c3ccc(F)cc3)C[C@]2(C(=O)c2ncc(C3CC3)s2)C1)S(=O)(=O)c1ccn(C)n1 [Example 175, N-((4aS,6S)-4a-(5-cyclopropylthiazole-2-carbonyl)-1-(4-fluorophenyl)-4,4a,5,6,7,8-hexahydro-1H-benzo[f]indazol-6-yl)-N-ethyl-1-methyl-1H-pyrazole-3-sulfonamide]
O=C(c1ncc(C(F)(F)F)s1)[C@]12Cc3cnn(-c4ccc(F)cc4)c3C=C1CC[C@H](N(C1CC1)S(=O)(=O)c1cnn(C(F)F)c1)C2 [Example 180, N-cyclopropyl-1-(difluoromethyl)-N-((4aS,6S)-1-(4-fluorophenyl)-4a-(5-(trifluoromethyl)thiazole-2-carbonyl)-4,4a,5,6,7,8-hexahydro-1H-benzo[f]indazol-6-yl)-1H-pyrazole-4-sulfonamide]
Cn1cc(S(=O)(=O)N(CC2CC2)[C@H]2CCC3=Cc4c(cnn4-c4ccc(F)cc4)C[C@]3(C(=O)c3ncc(C(F)(F)F)s3)C2)cn1 [Example 181, N-(cyclopropylmethyl)-N-((4aS,6S)-1-(4-fluorophenyl)-4a-(5-(trifluoromethyl)thiazole-2-carbonyl)-4,4a,5,6,7,8-hexahydro-1H-benzo[f]indazol-6-yl)-1-methyl-1H-pyrazole-4-sulfonamide]
CC(C)N([C@H]1CCC2=Cc3c(cnn3-c3ccc(F)cc3)C[C@]2(C(=O)c2ncc(C3CC3)s2)C1)S(=O)(=O)c1ccn(C)n1 [Example 185, N-((4aS,6S)-4a-(5-cyclopropylthiazole-2-carbonyl)-1-(4-fluorophenyl)-4,4a,5,6,7,8-hexahydro-1H-benzo[f]indazol-6-yl)-N-isopropyl-1-methyl-1H-pyrazole-3-sulfonamide]
Cn1ccc(S(=O)(=O)N(CC2CC2)[C@H]2CCC3=Cc4c(cnn4-c4ccc(F)cc4)C[C@]3(C(=O)c3ncc(C4CC4)s3)C2)n1 [Example 187, N-(cyclopropylmethyl)-N-((4aS,6S)-4a-(5-cyclopropylthiazole-2-carbonyl)-1-(4-fluorophenyl)-4,4a,5,6,7,8-hexahydro-1H-benzo[f]indazol-6-yl)-1-methyl-1H-pyrazole-3-sulfonamide]
Cn1cc(C(=O)N(C2CC2)[C@H]2CCC3=Cc4c(cnn4-c4ccc(F)cc4)C[C@]3(C(=O)c3ncc(C(F)(F)F)s3)C2)cn1 [Example 188, N-cyclopropyl-N-((4aS,6S)-1-(4-fluorophenyl)-4a-(5 (trifluoromethyl)thiazole-2-carbonyl)-4,4a,5,6,7,8-hexahydro-1H-benzo[f]indazol-6-yl)-1-methyl-1H-pyrazole-4-carboxamide]
